Test results reported in ChEMBL document CHEMBL6127070, “Design, synthesis, and molecular dynamic simulations of some novel benzo[d]thiazoles with anti-virulence activity against Pseudomonas aeruginosa” (Eur J Med Chem, 2024).
Values after ≈ are worked out from the molar mass of the structure shown. One block for each molecule: values may come before it. Active and inactive are the calls of the source. The rule behind the calls is not given here.

Tests used:
[1] = Inhibition of quorum sensing system in Pseudomonas aeruginosa PAO1 assessed as reduction in pyocyanin production at 256 microg/ml relative to control; details: dose 256.0 µg/ml
Pseudomonas aeruginosa [2] = assay: Inhibition of biofilm formation in Pseudomonas aeruginosa PAO1 at 64 microg/ml relative to control; type: functional
Pseudomonas aeruginosa [3] = assay: Antibacterial activity against Pseudomonas aeruginosa assessed as bacterial mortality in presence of clarithromycin relative to control; type: functional
Pseudomonas aeruginosa [4] = assay: Antibacterial activity against Pseudomonas aeruginosa assessed as bacterial mortality in presence of ciprofloxacin relative to control; type: functional
[5] = Inhibition of quorum sensing system in Pseudomonas aeruginosa MH602 transfected with lasB promoter expressing gfp-ASV at 62.5 uM incubated for 20 hrs by microplate reader analysis relative to control
[6] = Inhibition of quorum sensing system in Pseudomonas aeruginosa MH602 transfected with lasB promoter expressing gfp-ASV at 125 uM incubated for 20 hrs by microplate reader analysis relative to control
[7] = Inhibition of quorum sensing system in Pseudomonas aeruginosa MH602 transfected with lasB promoter expressing gfp-ASV at 250 uM incubated for 20 hrs by microplate reader analysis relative to control
Pseudomonas aeruginosa [8] = assay: Inhibition of biofilm formation in Pseudomonas aeruginosa PAO1 at 50 uM incubated for 24 hrs by crystal violet staining based analysis relative to control; type: functional
[9] = Inhibition of quorum sensing system in Pseudomonas aeruginosa PAO1 transfected with lasB-gfp reporter gene incubated for >=12 hrs by fluorescence based microplate reader analysis
[10] = Inhibition of quorum sensing system in Pseudomonas aeruginosa transfected with lasB-gfp reporter gene incubated for 20 hrs by fluorescence based multilabel plate reader analysis
Pseudomonas aeruginosa [11] = assay: Antibiofilm activity against Pseudomonas aeruginosa assessed as inhibition of biofilm biomass at 300 microg/ml measured after 48 hrs relative to control; type: functional
Pseudomonas aeruginosa [12] = assay: Antibacterial activity against Pseudomonas aeruginosa by CLSI protocol based broth microdilution method; type: functional
Pseudomonas aeruginosa [13] = assay: Antibacterial activity against Pseudomonas aeruginosa assessed as 1/4 MIC by CLSI protocol based broth microdilution method; type: functional
Pseudomonas aeruginosa [14] = assay: Antibacterial activity against Pseudomonas aeruginosa assessed as effect on bacterial growth at 16 microg/ml incubated for 24 hrs by growth curve analysis; type: functional, organism-based; details: dose 16.0 µg/ml
Pseudomonas aeruginosa [15] = assay: Inhibition of biofilm formation in Pseudomonas aeruginosa at sub-MIC by crystal violet staining based analysis relative to control; type: functional
Pseudomonas aeruginosa [16] = assay: Inhibition of biofilm formation in Pseudomonas aeruginosa assessed as absorbance by measuring OD at 570 nm at sub-MIC by crystal violet staining based analysis (reference value: 0.635 +/- 0.014); type: functional
Pseudomonas aeruginosa [17] = assay: Antivirulence activity in Pseudomonas aeruginosa assessed as inhibition of pyocyanin production at sub-MIC by chloroform-HCl extraction method relative to control; type: functional
Pseudomonas aeruginosa [18] = assay: Antivirulence activity in Pseudomonas aeruginosa assessed as inhibition of rhamnolipids production at sub-MIC by spectrophotometric method relative to control; type: functional
Pseudomonas aeruginosa [19] = assay: Antivirulence activity in Pseudomonas aeruginosa assessed as inhibition of pyocyanin production by measuring OD at […] at sub-MIC by chloroform-HCl extraction method relative to control; type: functional
Pseudomonas aeruginosa [20] = assay: Inhibition of biofilm formation in Pseudomonas aeruginosa at MIC incubated for 48 hrs by crystal violet staining based analysis relative to control; type: functional

SMILES: COc1ccc(OCCCCCCCC(=O)NNC(=O)Cn2c(=O)oc3ncccc32)cc1
inhibition [1]: 46.9%
inhibition at 64 µg/mL (Pseudomonas aeruginosa [2]): 40%
mortality (Pseudomonas aeruginosa [3]): 49.79%
mortality (Pseudomonas aeruginosa [4]): 48.27%

SMILES: O=C(Cn1cc(-c2ccc([N+](=O)[O-])cc2)nn1)Nc1nc2ccccc2[nH]1
inhibition [5]: 63.7%
inhibition [6]: 67.1%
inhibition [7]: 68.2%

SMILES: CC[C@H]1OC(=O)[C@H](C)[C@@H](O[C@H]2C[C@@](C)(OC)[C@@H](O)[C@H](C)O2)[C@H](C)[C@@H](O[C@@H]2O[C@H](C)C[C@H](N(C)C)[C@H]2O)[C@](C)(O)C[C@@H](C)CN(C)[C@H](C)[C@@H](O)[C@]1(C)O [AZITHROMYCIN]
SubMIC (Pseudomonas aeruginosa [12]): 16 µg/mL
MIC (Pseudomonas aeruginosa [12]; Pseudomonas aeruginosa): 85.4 µM (≈ 64 µg/mL)
MIC (Pseudomonas aeruginosa [13]): 20.1 µM (≈ 15.1 µg/mL)
Activity (Pseudomonas aeruginosa [14]): inactive
inhibition (INH) (Pseudomonas aeruginosa [15]): 21.7%
OD (Pseudomonas aeruginosa [16]): 0.307
inhibition (INH) (Pseudomonas aeruginosa [17]): 51.5%
inhibition (INH) (Pseudomonas aeruginosa [18]): 47.4%
OD (Pseudomonas aeruginosa [19]): 0.216

SMILES: COC(=O)c1ccc(/N=N/c2c(N)nn3c(N)c(C#N)c(-c4ccc(N(C)C)cc4)nc23)cc1
inhibition (INH) (Pseudomonas aeruginosa [20]): 69%

More lines, main results first:

IC50 [9]: 2080 nM
SMILES: [O-][S+](Cc1ccc(Cl)cc1)c1nc2cc(Cl)ccc2o1 (stereo unspecified)
inhibition at 50 µM (Pseudomonas aeruginosa [8]): 46.1%

IC50 [10]: 45.5 µg/mL (≈ 132 µM)
SMILES: COc1ccc(C(=O)CSc2nc3ccccc3s2)c(OC)c1
inhibition at 300 µg/mL (Pseudomonas aeruginosa [11]): 70%
